These results are taken from patent US8354128B2, “Blackberry leaf extract as an active ingredient against skin irritations and inflammations” (Symrise AG, priority 2005, dated 2013).

Usually inhibition stands for the relative decrease from the control value, in per cent. High values mean strong suppression, low ones little suppression.

This experiment has as its system IL-1 alpha biosynthesis in human skin cells (HaCaT keratinocytes). The experiment in a line: Anti-interleukin-1alpha assay: IL-1 alpha biosynthesis in A23187-stimulated HaCaT keratinocytes, ELISA of cell lysate. It is filed as cell-based. Particulars: vs stimulated control (0.2 μM A23187, 6 h). On the procedure: Since interleukin-1 alpha (IL-1 alpha) is a central inflammatory mediator in the skin, the inhibiting effect of the blackberry leaf extract on IL-1 alpha biosynthesis in human skin cells (HaCaT keratinocytes) was investigated. The cells are disseminated in a 96-well microtitre plate (MTP) on the previous day. On the day of the experiment, the test substance solutions are applied in medium in three different concentrations as a triple determination and incubated for 60 min at 37° C. and 5% CO2. Cellular IL-1 alpha biosynthesis is then stimulated by the addition of 0.2 μM A23187 calcium ionophore and the solutions are incubated for a further 6 h. The supernatant is drawn off and the cells undergo lysis through the addition of 1% Triton X 100. The IL-1 alpha in the cell lysate is quantified in an ELISA (human IL-1 alpha ELISA kit, EH2IL1A, Endogen).
The results set out below were obtained from two independent experiments. IL-1 alpha inhibition was calculated in comparison to the stimulated control.
(An ELISA detects its analyte on a solid surface through an enzyme-linked reagent.)

`C[C@@H]1C[C@H]2[C@@H]3CCC4=CC(=O)C=C[C@]4(C)[C@@]3(F)[C@@H](O)C[C@]2(C)[C@@]1(O)C(=O)CO` [Dexamethasone]: under “0.01 μM dexamethasone”, at 0.01 µM the inhibition was 28.8%. The inhibition at 0.1 µM (0.1 μM dexamethasone) is 37.7%. Besides, the inhibition at 1 µM (1 μM dexamethasone) was 44.7%.
